On the set-up of data set [1]: method as in PMID 17319702. As to conditions: cited from earlier work.
The format of data set [2] is physicochemical. How it is done:
To check whether there was a pKa shift, we titrated the surfactant at a concentration below the CMC. The titration curve is shown in Supplementary Figure S1, where 10 mL of 1.5 mM surfactant was titrated with 3 mM NaOH.
The titration was followed using a glass electrode Orion coupled with an Orion Versastar reader (Thermo Scientific). […] 16% carbonation was determined. using Equation (1), which is derived making use of the charge and mass balances together with the acid constants of H2CO3, pK1CO2 = 6.35, pK2CO2 = 10.25 and water dissociation constant pKw = 14. (1) V = −V0Ca10^pKa−pH/1+10^pKa−pH−V0Ca+V0(1/10^pH−10^pH+pKw)/cb(1−α(1−1/1+10^pH+pK1CO2+10^2pH+pK2CO2))+(1/10^pH−10^pH+pKw) where V0 is the titrated solution initial volume, L is concentration, pKa is the searched acid constant, pkw is the minus logarithm of the water dissociation constant, Cb is the titrant concentration, α is the fraction of carbonated titrant, pK1CO2 is the first dissociation constant of CO2 and pK2CO2 is the second dissociation constant of CO2.

The subject of data set [3] is Bacillus subtilis ATCC 6633. The data set is described as follows: Broth microdilution MIC. In kind it is cell-based. The note with it: 24 h, 37 °C, total surfactant concentration. How it is done:
(§1) Antibacterial assays were conducted in vitro using the broth microdilution method. The minimum inhibitory concentration (MIC) is the smallest concentration of antibacterial agent at which bacterial growth is not observed. MIC values were determined for 4 Gram-positive bacteria (methicillin-resistant Staphylococcus aureus ATCC 43300 (MRSA), Bacillus subtilis ATCC 6633, Kocuria rhizophila 9341, Staphylococcus epidermidis ATCC 12228), 3 Gram-negative bacteria (Klebsiella pneumoniae ATCC 4532, Pseudomonas aeruginosa ATCC 27853, Escherichia coli ATCC 8739) and the fungal strain, Candida albicans ATCC 10231. Frozen stocks of bacteria were incubated on Muller Hinton agar plates for 24 h at 37 °C. From this culture, a bacterial suspension of 1 × 10^6 colony forming units CFU/mL was prepared in MHB (pH = 7.3). Two dilutions of pure surfactants and their binary mixtures were prepared in MH broth to obtain a final concentration ranging from 4 to 454 μM in the microtiter plates.
(§2) Then, 10 μL of nutrient broth culture of each microorganism was added to achieve a final density of ca. 5 × 10^5 CFU/mL. The cultures were incubated for 24 h at 37 °C. Every assay was repeated three times.
Background: Dilution methods test growth across graded concentrations, often in twofold steps.

The test system of data set [4] is Candida albicans ATCC 10231. The data set is described as follows: Broth microdilution MIC. It counts as cell-based. As to conditions: 24 h, 37 °C, total surfactant concentration. How it is done: as §1, §2
Data set [5] relates to Kocuria rhizophila ATCC 9341. The data set can be described thus: Broth microdilution MIC. In kind it is cell-based. As to conditions: 24 h, 37 °C, total surfactant concentration. How it is done:
as §1, §2

Data set [6] concerns Pseudomonas aeruginosa ATCC 27853. The data set is described as follows: Broth microdilution MIC. It counts as cell-based. As to conditions: 24 h, 37 °C, total surfactant concentration. As to the method: as §1, §2
In data set [7] the test system is Staphylococcus epidermidis ATCC 12228. The data set is described as follows: Broth microdilution MIC. In kind it is cell-based. The note with it: 24 h, 37 °C, total surfactant concentration. As to the method: as §1, §2
The mark [8] stands for this setting: 10 mM NaCl CO2 saturated solution.

With `CCCCCCCCCCCCCC(=O)O` [Sodium myristate, sodium myristate], in data set [1] (setting [8]), the “Concentration at which surface tension stabilizes” value is reported as “around 0.3 mM” and the Limiting surface tension entry is recorded as “about 25 mNm^−1”. Besides, in data set [1] (basic conditions), the “Surface tension at CMC” value is given as “about 40 mNm^−1”. Moreover, the CMC in data set [1] (basic media) is reported as 3 mM.

Turning to “N(π),N(τ)-bis(methyl)-L-Histidine tetradecyl amide [DMHNHC14]”, the pKa in data set [2] is on record as 5.7-5.9. Besides, in data set [2], the “pKa calculated from the concentration and the initial solution pH” value is recorded as 5.4. Further, in data set [2], the “pKa shift versus literature value for the histidine secondary amine” value was “about 3.3 units”. The MIC (usually the least concentration at which growth counts as inhibited) in data set [3] stood at 28 µM; in data set [4], 28 µM; in data set [5] it was 28 µM; in data set [6], 227 µM; in data set [7] it was 14 µM.

Source of the values: article PMC7727793, “Aggregation Behavior, Antibacterial Activity and Biocompatibility of Catanionic Assemblies Based on Amino Acid-Derived Surfactants” (International Journal of Molecular Sciences, 2020).
